Test system: rAbf43A
Assay: HPLC of released arabinose, Michaelis-Menten non-linear regression
Type: biochemical, metagenome: lignocellulolytic bacterial consortium EMSD5
Conditions: 0.05 M citric-Na2HPO4 pH 5.0, 40 °C, 10 min; AXHd3 activity; 0-40.0 mM substrate

Km: 8.03 mM
SMILES: OC[C@@H]1O[C@@H](O[C@@H]2[C@@H](O[C@@H]3O[C@@H](CO)[C@H](O)[C@H]3O)[C@H](O[C@@H]3CO[C@@H](O[C@@H]4COC(O)[C@H](O)[C@H]4O)[C@H](O)[C@H]3O)OC[C@H]2O)[C@H](O)[C@H]1O (stereo partly drawn) [A2,3XX, 2^3,3^3‐di‐α‐L‐arabinofuranosyl‐xylotriose]
